Source: patent publication US7485651B2, “Compounds with activity on muscarinic receptors” (Acadia Pharmaceuticals, Inc., priority 1998, dated 2009)

Assays:
Assay type in all cases: cell-based
[1] = target: T1, α-adrenergic receptor subtype 1A (Homo sapiens, UniProt P35348); assay: Test against other receptors: α-adrenergic 1A
T1 sequence (P35348 1-466): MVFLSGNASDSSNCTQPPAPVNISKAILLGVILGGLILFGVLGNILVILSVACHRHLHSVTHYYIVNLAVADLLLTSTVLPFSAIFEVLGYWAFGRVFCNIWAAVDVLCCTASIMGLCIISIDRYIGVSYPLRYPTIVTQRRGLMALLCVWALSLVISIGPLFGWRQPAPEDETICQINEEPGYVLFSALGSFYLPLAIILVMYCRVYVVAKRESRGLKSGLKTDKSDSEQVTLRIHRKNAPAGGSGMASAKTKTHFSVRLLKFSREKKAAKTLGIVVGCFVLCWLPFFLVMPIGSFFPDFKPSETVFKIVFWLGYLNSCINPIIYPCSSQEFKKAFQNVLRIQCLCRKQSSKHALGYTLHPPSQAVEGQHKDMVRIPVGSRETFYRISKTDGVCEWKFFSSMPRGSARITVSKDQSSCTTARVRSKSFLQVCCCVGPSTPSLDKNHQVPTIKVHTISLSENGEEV

[2] = target: T2, m2 receptor (Homo sapiens, UniProt P08172); assay: NIH 3T3 cells transfected with m2 muscarinic receptor and Gq-i5
T2 construct: expressed in transfected cells; host or cells: NIH 3T3 (ATCC CRL 1658)
T2 sequence (P08172 1-466): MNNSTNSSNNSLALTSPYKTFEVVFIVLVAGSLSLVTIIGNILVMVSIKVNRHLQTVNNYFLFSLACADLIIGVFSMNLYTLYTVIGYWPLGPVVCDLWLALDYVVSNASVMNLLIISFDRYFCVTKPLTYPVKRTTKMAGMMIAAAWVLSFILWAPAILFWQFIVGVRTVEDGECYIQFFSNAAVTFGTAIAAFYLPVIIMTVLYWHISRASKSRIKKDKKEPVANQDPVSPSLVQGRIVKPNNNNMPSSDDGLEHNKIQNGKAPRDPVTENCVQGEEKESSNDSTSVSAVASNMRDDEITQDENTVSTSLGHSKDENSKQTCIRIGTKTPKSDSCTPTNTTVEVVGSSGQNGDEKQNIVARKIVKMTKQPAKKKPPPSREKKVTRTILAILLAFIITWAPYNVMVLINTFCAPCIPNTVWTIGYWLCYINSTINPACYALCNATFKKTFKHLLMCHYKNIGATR
Procedure: Transfection of cells with muscarinic receptor DNAs (general procedure) NIH 3T3 cells (available from the American Type Culture Collection as ATCC CRL 1658) were grown at 37° C. in a humidified atmosphere (5% CO2) incubator in Dulbecco's modified Eagle's medium (DMEM) supplemented with 4.5 g/l glucose, 4 mM glutamine, 50 units/m1 penicillin, 50 units/m1 streptomycin (available from Advanced Biotechnologies, Inc., Gaithersburg, Md.) and 10% calf serum (available from Sigma, St. Louis, […].). The cells were treated with trypsin-EDTA, spun down and plated at 2×10^6 per 15 cm dish in 20 m1 of DMEM containing 10% calf serum.
The m1-m5 muscarinic receptor subtypes were cloned substantially as described by Bonner et al., Science 237, 1987, p. 527, and Bonner et al., Neuron 1, 1988, p. 403. For the m2 and m4 receptors, the cells were co-transfected with DNA encoding a chimera between the Gq protein and the five carboxy-terminal amino acids of the Gi protein (the Gq-i5 construct is described by Conklin et al., Nature 363, 1993, p.274).
On day one, the cells were transfected using the Superfect transfection reagent (available from Qiagen, Valencia, Calif.) in accordance with the manufacturer's instructions. […]

[3] = target: T3, serotonin 5-HT1A (Homo sapiens, UniProt P08908); assay: Test against other receptors: serotonin 5-HT1A
T3 sequence (P08908 1-422): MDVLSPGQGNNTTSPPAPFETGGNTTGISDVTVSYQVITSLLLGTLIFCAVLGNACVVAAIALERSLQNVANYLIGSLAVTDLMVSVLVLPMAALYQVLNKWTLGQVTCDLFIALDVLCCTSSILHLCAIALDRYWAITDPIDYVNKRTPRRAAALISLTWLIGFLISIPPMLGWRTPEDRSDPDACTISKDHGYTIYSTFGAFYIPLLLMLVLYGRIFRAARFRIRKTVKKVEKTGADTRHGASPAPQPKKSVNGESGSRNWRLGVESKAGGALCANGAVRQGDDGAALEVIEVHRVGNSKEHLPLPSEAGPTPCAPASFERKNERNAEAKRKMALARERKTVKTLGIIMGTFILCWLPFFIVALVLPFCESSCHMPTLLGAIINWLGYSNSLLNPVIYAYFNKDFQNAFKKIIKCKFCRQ

CCCCC1CCN(CCCC(=O)c2ccccc2C)CC1 [Compound A, 4-n-Butyl-1-[4-(2-methylphenyl)-4-oxo-1-butyl]piperidine]
agonist activity [1]: no significant activity
antagonism of carbachol-induced responses [2]: not an antagonist
agonist activity [3]: no significant activity
inhibition of receptor responses (antagonist experiments) [3]: did not inhibit
